Measured values: article PMC11331448 (Journal of chemical information and modeling, 2024)

Molecular target: BChE (Homo sapiens, UniProt P06276)
Settings: BChE versus AChE inhibition, colorimetric kits

Chain of BChE (P06276 29-602, species assumed): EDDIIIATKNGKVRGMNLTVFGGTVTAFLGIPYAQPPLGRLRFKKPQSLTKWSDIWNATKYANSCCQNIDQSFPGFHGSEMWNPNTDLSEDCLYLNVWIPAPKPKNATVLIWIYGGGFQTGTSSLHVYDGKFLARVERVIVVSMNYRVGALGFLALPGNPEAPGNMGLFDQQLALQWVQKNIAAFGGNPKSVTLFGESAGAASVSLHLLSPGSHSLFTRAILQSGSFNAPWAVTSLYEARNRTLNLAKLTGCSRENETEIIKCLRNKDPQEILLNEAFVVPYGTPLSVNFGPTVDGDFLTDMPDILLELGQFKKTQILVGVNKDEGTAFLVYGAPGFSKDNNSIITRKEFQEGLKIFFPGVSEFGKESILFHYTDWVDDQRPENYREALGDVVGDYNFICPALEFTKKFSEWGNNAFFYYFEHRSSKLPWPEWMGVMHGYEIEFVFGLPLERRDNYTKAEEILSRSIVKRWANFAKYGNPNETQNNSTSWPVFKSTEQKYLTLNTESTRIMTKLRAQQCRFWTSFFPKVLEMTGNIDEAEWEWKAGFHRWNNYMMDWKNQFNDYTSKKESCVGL

OC(CN1CCCCC1)c1c[nH]c2ccccc12 (stereo not shown) [CPI7075, 1-(1H-indol-3-yl)-2-(piperidin-1-yl)ethanol]
BChE selectivity in vitro: selective BChE inhibitors
